We go through one substance from patent US9446122B2, “Use of GK-1 peptide expressed on M13 filamentous phage as pharmaceutical ingredient to enhance the efficiency of the immune response induced by vaccine or pathogen antigens” (UNIVERSIDAD NACIONAL AUTONOMA DE MEXICO, priority 2011, dated 2016).

The subject of assay [1] is immune response elicited by influenza vaccine. Put plainly: Serum IgG after subcutaneous immunization, FGK-1 versus synthetic GK-1 (Example 4). Format: in vivo, female BALB/cAnN mice. As to conditions: younger mice. The procedure:
The following treatment schedules were assessed for five-mouse groups:
(§1) Influenza vaccine was administered at a dose of 1 μg/mouse [A/New Caledonia/20/99(H1N1) strain, A/Panama/2007/99(H3N2) strain (analog to A/Moscow/10/99 strain), and B/Victoria/504/2000 strain (analog to B/Sichuan/379/99 strain)]. FLUZONE® vaccine for the flu season 2004-2005, containing 45 μg of hemagglutinin HA per 0.5 ml-dose, was used.
(§2) Synthetic GK-1 peptide was used at its optimal dose (Segura-Velźquez et al. 2006), in a 10 μg/mouse concentration.
Mice received a single dose of each immunogen by subcutaneous route at the tail base, and the induced response was evaluated in serum 21 days after immunization. Sera were obtained from peripheral blood, centrifuged at 5,000 rpm by 12 min, and aliquots were frozen until analysis.

In assay [2] the test system is immune response elicited by intranasally administered influenza vaccine. Put plainly: Serum IgG after intranasal immunization, FGK-1 versus synthetic GK-1 (Example 5). It counts as in vivo, female BALB/cAnN mice. The procedure: The following treatment schedules were administered to five-mouse groups:
as §1, §2
Mice were administered intranasally one single dose of each immunogen, and the induced response was evaluated in serum and bronchoalveolar lavages in different times after immunization, namely 21 and 45 days. Sera were obtained from peripheral blood, centrifuged at 5,000 rpm by 12 min, and aliquots were frozen until analysis. Bronchoalveolar lavages were obtained by performing intratracheal lavages with 300 μl of saline solution 45 days after immunization.

As to “G-Y-Y-Y-P-S-D-P-N-T-F-Y-A-P-P-Y-S-A (GYYYPSDPNTFYAPPYSA) [synthetic GK-1 peptide, 18-amino acid peptide derived from a Taenia solium cysticerci cDNA library]”, the “antibody levels versus vaccine alone” value in assay [1] (co-administered with influenza vaccine) was “does not increase antibody levels”. Besides, in assay [1] (subcutaneous, 21 days), the “antibody response versus influenza vaccine alone” value is “slightly higher antibody response”. Moreover, the “potentiation of influenza vaccine by intranasal administration” value in assay [2] is “does not potentiate the vaccine”.
